Data taken from patent publication US20130324489A1, “NEW ANTIFUNGAL COMPOSITIONS” (DSM IP ASSETS B.V., priority 2011, published 2013).
Values joined by “and” are separate entries in the source; they are usually repeats but may differ in a detail not shown here. Equal values may be shown once.

Key:
Botrytis cinerea = experiment: Treatment of wounded apples inoculated with Botrytis cinerea (dip, mould growth); type: in vivo; settings: 250 ppm natamycin, 20° C.
Description: Twelf fresh, organic apples were used per treatment. Each apple was wounded once using a cork borer according to the method described by de Lapeyre de Bellaire and Dubois (1987). Subsequently, each wound was inoculated with 10 μl of a Botrytis cinerea suspension containing 1×10^5 of spores/ml. […] In addition, the antifungal compositions comprised 3.1% (w/w) beeswax, 0.76% (w/w) glycerol, 0.66% (w/w) polyoxyethylene sorbitan monostearate (Tween 60), 0.03% (w/w) methylhydroxyethylcellulose (MHEC), 0.02% (w/w) xanthan gum, 0.02% (w/w) anti-foaming agent, 0.15% (w/w) citric acid and 0.01% (w/w) potassium sorbate. The pH of the compositions was 4. […] The treated apples were incubated in a closed box in the dark at 20° C.
During incubation, the treated apples were assessed on mould growth according to the two methods described in Example 8.

Penicillium italicum = experiment: In vitro antifungal activity, 96-well microtiter plates; type: cell-based; settings: 0.63 ppm natamycin, 25° C.
Description: Subsequently, 100 μl of a Botrytis cinerea suspension prepared in PCB medium was used to inoculated each well with 2.5×10^3 spores/ml.
After incubation of the microtiter plates at 25° C., the in vitro antifungal activity (%) of the individual active ingredients was assessed by calculating the reduction in mould growth observed in the presence of the active ingredient in comparison to the mould growth observed in the absence of the active ingredient. The expected antifungal activity (E in %) of the active ingredient combination was calculated according to the Colby equation (Colby, 1967): […]
wherein X and Y are the observed antifungal activities (in %) of the individual active ingredients X and Y, respectively. If the observed antifungal activity (O in %) of the combination exceeds the expected antifungal activity (E in %) of the combination and the resulting synergy factor O/E is thus >1.0, the combined application of the active ingredients leads to a synergistic antifungal effect.
The experiment was conducted as described in Example 10, except for the fact that the following compositions were tested:
Furthermore, Penicillium italicum was used for inoculation. The antifungal activity (in %) of the individual and combined active ingredients was determined according to the method described in Example 10.

[1] = 250 ppm procymidone or both, day 6
[2] = 250 ppm procymidone or both, day 7-11
[3] = 250 ppm procymidone or both, day 12-13
[4] = 250 ppm procymidone or both, day 13
[5] = 250 ppm procymidone or both, day 14
[6] = 250 ppm procymidone or both, day 14-25
[7] = 250 ppm procymidone or both, day 15
[8] = 250 ppm procymidone or both, day 17
[9] = 250 ppm procymidone or both, day 18
[10] = 250 ppm procymidone or both, day 20
[11] = 250 ppm procymidone or both, day 22
[12] = 250 ppm procymidone or both, day 25
[13] = 500 ppm procymidone or both, day 4
[14] = 500 ppm procymidone or both, day 5-6
[15] = 500 ppm procymidone or both, day 7-11
[16] = 500 ppm procymidone or both, day 12
[17] = 500 ppm procymidone or both, day 13
[18] = 500 ppm procymidone or both, day 14
[19] = 500 ppm procymidone or both, day 14-25
[20] = 500 ppm procymidone or both, day 15
[21] = 500 ppm procymidone or both, day 17
[22] = 500 ppm procymidone or both, day 18
[23] = 500 ppm procymidone or both, day 20
[24] = 500 ppm procymidone or both, day 22
[25] = 500 ppm procymidone or both, day 25
[26] = 5.0 ppm vinclozolin, 10 ppm procymidone, alone or natamycin + one of them, day 3
[27] = 50 ppm procymidone or both, day 5

| SMILES | Number of moulded apples/total number of 12 apples (Botrytis cinerea; [1]) | Number of moulded apples/total number of 12 apples (Botrytis cinerea; [2]) | Number of moulded apples/total number of 12 apples (Botrytis cinerea; [3]) | Observed antifungal activity O (%) (Botrytis cinerea; [4]) | Observed antifungal activity O (%) (Botrytis cinerea; [5]) | Number of moulded apples/total number of 12 apples (Botrytis cinerea; [6]) | Observed antifungal activity O (%) (Botrytis cinerea; [7]) | Observed antifungal activity O (%) (Botrytis cinerea; [8]) | Observed antifungal activity O (%) (Botrytis cinerea; [9]) | Observed antifungal activity O (%) (Botrytis cinerea; [10]) | Observed antifungal activity O (%) (Botrytis cinerea; [11]) | Observed antifungal activity O (%) (Botrytis cinerea; [12]) | Number of moulded apples/total number of 12 apples (Botrytis cinerea; [13]) | Number of moulded apples/total number of 12 apples (Botrytis cinerea; [14]) | Number of moulded apples/total number of 12 apples (Botrytis cinerea; [15]) | Number of moulded apples/total number of 12 apples (Botrytis cinerea; [16]) | Number of moulded apples/total number of 12 apples (Botrytis cinerea; [17]) | Observed antifungal activity O (%) (Botrytis cinerea; [17]) | Observed antifungal activity O (%) (Botrytis cinerea; [18]) | Number of moulded apples/total number of 12 apples (Botrytis cinerea; [19]) | also measured |
| --- | --- | --- | --- | --- | --- | --- | --- | --- | --- | --- | --- | --- | --- | --- | --- | --- | --- | --- | --- | --- | --- |
| C[C@@H]1C/C=C/C=C/C=C/C=C/[C@H](O[C@@H]2O[C@H](C)[C@@H](O)[C@H](N)[C@@H]2O)C[C@@H]2O[C@](O)(C[C@@H](O)C[C@H]3O[C@@H]3/C=C/C(=O)O1)C[C@H](O)[C@H]2C(=O)O [Natamycin, natamycin] | 12/12 | 12/12 | 12/12 | 31% | 26% | 12/12 | 23% | 18% | 18% | 16% | 14% | 14% | 11 and 11/12 | 12 and 12/12 | 12 and 12/12 | 12/12 | 12/12 | 31% | 26% | 12/12 | Observed antifungal activity O (%) (Botrytis cinerea; [20]): 23%; Observed antifungal activity O (%) (Botrytis cinerea; [21]): 18%; Observed antifungal activity O (%) (Botrytis cinerea; [22]): 18%; Observed antifungal activity O (%) (Botrytis cinerea; [23]): 16%; Observed antifungal activity O (%) (Botrytis cinerea; [24]): 14%; Observed antifungal activity O (%) (Botrytis cinerea; [25]): 14%; Observed antifungal activity O (%) (Penicillium italicum; [26]): 0%; Observed antifungal activity O (%) (Penicillium italicum; [27]): 0% |
| CC12CC1(C)C(=O)N(c1cc(Cl)cc(Cl)c1)C2=O (centres unmarked) [Procymidone, procymidone] | 7 and 7/12 | 8 and 8/12 | 12/12 | 65% | 55% | 12/12 | 50% | 44% | 37% | 31% | 26% | 17% | 8 and 8/12 | 8 and 8/12 | 8 and 8/12 | 10 and 10/12 | 11 and 11/12 | 75% | 71% | 12/12 | Observed antifungal activity O (%) (Botrytis cinerea; [20]): 67%; Observed antifungal activity O (%) (Botrytis cinerea; [21]): 57%; Observed antifungal activity O (%) (Botrytis cinerea; [22]): 51%; Observed antifungal activity O (%) (Botrytis cinerea; [23]): 45%; Observed antifungal activity O (%) (Botrytis cinerea; [24]): 38%; Observed antifungal activity O (%) (Botrytis cinerea; [25]): 26%; Observed antifungal activity O (%) (Penicillium italicum; [26]): 0%; Observed antifungal activity O (%) (Penicillium italicum; [27]): 0% |
